Test results: patent publication US20240166604A1, “HYDROXYTYROSOL NICOTINAMIDE EUTECTIC CRYSTAL, AND PREPARATION METHOD THEREFOR AND COMPOSITION THEREOF” (COCRYSTAL TECHNOLOGY (JIAXING) CO., LTD., priority 2021, published 2024)

Assays:
[1] = Hygroscopicity by dynamic moisture sorption (DVS); format: physicochemical; conditions: 80% relative humidity, 25° C.
Protocol: About 5 mg of powder sample was weighed and put in a dynamic moisture sorption instrument (DVS). The relative humidity range was set at from 0 to 95%, and the temperature was set at 25° C. The weight change of the samples under different environmental humidity conditions were recorded and used to compare the hygroscopicity of the material.

[2] = Chemical stability at 40° C./75% RH, hydroxytyrosol content by HPLC; format: physicochemical; conditions: double-layer polyethylene bags; for content of hydroxytyrosol, Day 0: 0 d, initial content set as 100%; for content of hydroxytyrosol, Day 14: 14 d; for content of hydroxytyrosol, Day 14 / content of hydroxytyrosol, Day 30: % of initial content; for content of hydroxytyrosol, Day 30: 30 d
Protocol: An appropriate amount of powder sample was put in an accelerated stability chamber at 40° C./75% RH with the packaging condition of double-layer polyethylene bags, and the sample was taken at 0 d, 14 d, and 30 d. The content of hydroxytyrosol was determined by high performance liquid chromatography (the content was calculated by external standard method).

For “co-crystal of hydroxytyrosol and nicotinamide [Example 1]”, the “hygroscopicity (in words)” value [1] was “basically non-hygroscopic”, the “hygroscopicity (weight change)” value [1] was 0.39% and the “content of hydroxytyrosol, Day 0” value [2] was 100.0%. The “content of hydroxytyrosol, Day 14” value [2] was 99.7%.
With OCCc1ccc(O)c(O)c1 [Hydroxytyrosol itself, Hydroxytyrosol] the “hygroscopicity (weight change)” value [1] was 16.9%, the “content of hydroxytyrosol, Day 0” value [2] was 100.0% and the “content of hydroxytyrosol, Day 14” value [2] was 98.8%. For the same compound, the “content of hydroxytyrosol, Day 30” value [2] was 92.3% and the “content of hydroxytyrosol, Day 30” value ([2]; listed as hydroxytyrosol itself) was 92.3%.
